10 compounds from ChEMBL document CHEMBL4266035, “Insulin Mimetic Activity of 3,4- Seco and Hexanordammarane Triterpenoids Isolated from Gynostemma longipes” (J Nat Prod, 2018) can be followed below.

For series [1], the system named is 3T3-L1. The experiment in a line: Cytotoxicity against mouse 3T3L1 cells at 40 uM after 24 hrs by MTT assay. It is filed as cell-based. As to conditions: 3t3-l1, 24 h.
Series [2] concerns 3T3-L1. The series is described as follows: Induction of 2-NBDG uptake in differentiated mouse 3T3L1 cells at 20 uM after 1 hr by fluorescence microscopic method. It is filed as functional, cell-based.
The test system of series [3] is C2C12. The series is described as follows: Cytotoxicity against mouse C2C12 cells at 40 uM after 24 hrs by MTT assay. It is filed as cell-based. The following applies: c2c12, 24 h. In general terms: Tetrazolium assays rely on reduction of a dye to a coloured formazan, in cell work by metabolically active cells.
Series [4] deals with C2C12. The experiment in a line: Induction of AMPKalpha phosphorylation at Thr-172 residue in mouse C2C12 cells at 20 uM after 1 hr by Western blot analysis. Format: cell-based. (A western blot detects proteins with antibodies after separation by electrophoresis.)
Series [5] deals with 3T3-L1. The series is described as follows: Induction of 2-NBDG uptake in differentiated mouse 3T3L1 cells after 1 hr by fluorescence microscopic method. It is filed as functional, cell-based.
For series [6], the species on record is Mus musculus. The series is described as follows: Activation of AMPK signaling pathway in mouse 3T3L1 cells assessed as induction of GLUT4 translocation at 20 uM after 24 hrs by Western blot analysis. It is filed as cell-based.
Series [7] relates to C2C12. The experiment in a line: Activation of AMPKalpha in mouse C2C12 cells assessed as upregulation of ACC-phosphorylation at 20 uM after 1 hr by Western blot analysis. It is filed as cell-based.
Series [8] has as its system 3T3-L1. The series is described as follows: Cytotoxicity against mouse 3T3L1 cells at 10 to 30 uM after 24 hrs by MTT assay. Format: cell-based. The following applies: 3t3-l1, 24 h.
Series [9] concerns 3T3-L1. The series is described as follows: Induction of 2-NBDG uptake in differentiated mouse 3T3L1 cells at 10 uM after 1 hr by fluorescence microscopic method. Format: functional, cell-based.
In series [10] the test system is C2C12. The series is described as follows: Cytotoxicity against mouse C2C12 cells at 10 uM after 24 hrs by MTT assay. It is filed as cell-based. The following applies: c2c12, 24 h.
The subject of series [11] is C2C12. The experiment in a line: Induction of AMPKalpha phosphorylation at Thr-172 residue in mouse C2C12 cells at 10 uM after 1 hr by Western blot analysis. It is filed as cell-based.

The source made the active and inactive calls. No cut-off for these calls is given here.

Regarding `CC(=O)[C@H]1CC[C@]2(C)[C@@H]1C(=O)C[C@@H]1[C@@]3(C)CC[C@H](O[C@@H]4O[C@H](CO[C@@H]5O[C@@H](C)[C@H](O)[C@@H](O)[C@H]5O)[C@H](O)[C@H](O[C@@H]5O[C@@H](C)[C@H](O)[C@@H](O)[C@H]5O)[C@H]4O[C@@H]4O[C@@H](C)[C@H](O)[C@@H](O)[C@H]4O)C(C)(C)[C@@H]3CC[C@]12C`, the Activity entry in series [1] and in series [3] was “Non-Toxic” throughout. In addition, the outcome in series [2] and in [4] was Active.

Regarding `C[C@@H]1O[C@@H](O[C@H]2[C@H](O[C@H]3CC[C@]4(C)[C@H]5CC(=O)[C@@H]6[C@@H]([C@@](C)(O)C/C=C/C(C)(C)O)CC[C@@]6(C)[C@]5(C)CC[C@H]4C3(C)C)O[C@H](CO)[C@H](O)[C@@H]2O[C@@H]2O[C@@H](C)[C@H](O)[C@@H](O)[C@H]2O)[C@H](O)[C@H](O)[C@H]1O`, the Activity entry in series [1] was “Non-Toxic”; in series [5] it was “Dose-dependent effect”; in [3] it was “Non-Toxic”. Further, the outcome in series [6] and in [4] was Active.

For `CC(C)(O)CC(=O)C[C@](C)(O)[C@H]1CC[C@]2(C)[C@@H]1C(=O)C[C@@H]1[C@@](C)(CCC(=O)O)[C@@H](C(C)(C)O)CC[C@]12C`, the results for the Activity result in [1], in series [5] and in series [3] were “Non-Toxic”, “Dose-dependent effect” and “Non-Toxic”, respectively. For the same compound, the outcome in [6], in series [4] and in series [7] was Active.

Turning to `CC(=O)[C@H]1CC[C@]2(C)[C@@H]1C(=O)C[C@@H]1[C@@]3(C)CC[C@H](O[C@@H]4O[C@H](CO)[C@H](O)[C@H](O[C@@H]5O[C@@H](C)[C@H](O)[C@@H](O)[C@H]5O)[C@H]4O[C@@H]4O[C@@H](C)[C@H](O)[C@@H](O)[C@H]4O)C(C)(C)[C@@H]3CC[C@]12C`, the results for the Activity entry in [1], in [5] and in [3] were “Non-Toxic”, “Dose-dependent effect” and “Non-Toxic”, respectively. Also, the outcome in [6], in series [4] and in [7] was Active.

Consider `C[C@@H]1O[C@@H](OC[C@H]2O[C@@H](O[C@H]3CC[C@]4(C)[C@H]5CC(=O)[C@@H]6[C@@H]([C@@](C)(O)C/C=C/C(C)(C)O)CC[C@@]6(C)[C@]5(C)CC[C@H]4C3(C)C)[C@H](O[C@@H]3O[C@@H](C)[C@H](O)[C@@H](O)[C@H]3O)[C@@H](O[C@@H]3O[C@@H](C)[C@H](O)[C@@H](O)[C@H]3O)[C@H]2O)[C@H](O)[C@H](O)[C@H]1O`, for which the Activity entry in series [1] and in series [3] was “Non-Toxic” each time. In series [2], the result was Active. Besides, in series [4], the result was inactive.

As to `CC(=O)[C@H]1CC[C@]2(C)[C@@H]1C(=O)C[C@@H]1[C@@](C)(CCC(=O)O)[C@@H](C(C)(C)O)CC[C@]12C`, the Activity result in series [1] and in series [3] was “Non-Toxic” in each case. The outcome in series [2] and in [4] was Active.

Consider `CC(C)=CCC[C@](C)(O)[C@H]1CC[C@]2(C)[C@@H]1C(=O)C[C@@H]1[C@@]3(C)CC[C@H](O[C@@H]4O[C@H](CO)[C@@H](O)[C@H](O)[C@H]4O[C@@H]4O[C@@H](C)[C@H](O)[C@@H](O)[C@H]4O)C(C)(C)[C@@H]3CC[C@]12C`, for which the Activity entry in [1] is on record as “Toxic”; in series [8] it was “Non-Toxic”; in series [3] it was “Toxic”; in [10] it was “Non-Toxic”. Moreover, the outcome in [9] and in series [11] was Active.

As for `CC(C)=CC(=O)/C=C(/C)[C@H]1CC[C@]2(C)[C@@H]1C(=O)C[C@@H]1[C@@]3(C)CC[C@H](O[C@@H]4O[C@H](CO[C@@H]5O[C@@H](C)[C@H](O)[C@@H](O)[C@H]5O)[C@H](O)[C@H](O[C@@H]5O[C@@H](C)[C@H](O)[C@@H](O)[C@H]5O)[C@H]4O[C@@H]4O[C@@H](C)[C@H](O)[C@@H](O)[C@H]4O)C(C)(C)[C@@H]3CC[C@]12C`, the Activity entry in [1] and in series [3] was “Non-Toxic” throughout. The outcome in series [2] was Active. Besides, the outcome in series [4] was inactive.

Take `CC(C)=CC(=O)C[C@](C)(O)[C@H]1CC[C@]2(C)[C@@H]1C(=O)C[C@@H]1[C@@](C)(CCC(=O)O)[C@@H](C(C)(C)O)CC[C@]12C`: the Activity result is “Non-Toxic” in [1], “Dose-dependent effect” in [5] and “Non-Toxic” in series [3]. In addition, the result in [6], in series [4] and in [7] was Active.

In the case of `C[C@@H]1O[C@@H](OC[C@H]2O[C@@H](O[C@H]3CC[C@]4(C)[C@H]5CC(=O)[C@@H]6[C@@H]([C@@](C)(O)CC(=O)CC(C)(C)O)CC[C@@]6(C)[C@]5(C)CC[C@H]4C3(C)C)[C@H](O[C@@H]3O[C@@H](C)[C@H](O)[C@@H](O)[C@H]3O)[C@@H](O[C@@H]3O[C@@H](C)[C@H](O)[C@@H](O)[C@H]3O)[C@H]2O)[C@H](O)[C@H](O)[C@H]1O`, the Activity result in series [1] and in [3] was “Non-Toxic” in each case. Also, in [2], the result was Active. The result in series [4] was inactive.
